Measurements from patent US8501772B2, “3,8-diaminotetrahydroquinoline derivative” (Zeria Pharmaceutical Co., Ltd., priority 2008, dated 2013).
Counter-ions that a name gives are not always drawn.

Experiments:
human GHS-R1a = molecular target: T1, human GHS-R1a (Homo sapiens, UniProt Q92847); assay: Agonistic activity by use of a cell line stably expressing human GHS-R1a (intracellular calcium increase); assay type: cell-based; conditions: hGHS-R1a/CHO cells, percent increase in intracellular calcium vs 100 nM ghrelin; read-out: GHS-R agonistic activity (EC50: nM)
T1 construct: expressed in transfected cells
Experimental: CHO-K1 cells were transfected with human GHS-R1a genes, to thereby provide cells stably expressing GHS-R1a (hGHS-R1a/CHO), and the agonistic activity of each compound was evaluated by use of the cells based on percent increase in intracellular calcium as an index.
The hGHS-R1a/CHO cells were inoculated at 6×10^4 cells/well in a 96-well plate (Clear bottom/Black plate, product of Corning), and cultured in Ham's F12 medium containing 10% fetal bovine serum at 37° C. and 5% CO2 for 18 hours. After culture, the medium was removed, and then the hGHS-R1a/CHO cells were cultured for two hours in a Hanks' balanced salt solution/HEPES (HBSS/HEPES, 100 μL) containing a calcium fluorescent indicator (4 μM Fluo-3AM, product of Dojin), 2 mM Probenecid, 0.1% Pluronic F-127, and 0.1% BSA, whereby the indicator was incorporated into the cells. After washing the cells, HBSS/HEPES (175 μL/well) containing 2 mM Probenecid and 0.1% BSA was added to the plate, and the fluorescence before and after addition of each test compound was determined by means of FLEXstation (Ex: 485 nm, Em: 525 nm, product of Molecular Devices). Each test compound was multi-fold diluted with dimethyl sulfoxide and then diluted with HBSS/HEPES containing 2 mM Probenecid, 0.04% Pluronic F-127, and 0.1% BSA, to thereby attain a final concentration of interest. The thus-diluted solution (25 μL/well) was added to the wells.
Agonistic activity(%)=(A−B)/(C−D)×100
A: Fluorescence intensity after addition of test compound
B: Fluorescence intensity before addition of test compound
C: Fluorescence intensity after addition of 100 nM ghrelin
D: Fluorescence intensity before addition of ghrelin

[1] = Bioavailability in male rats; assay type: in vivo; conditions: rat, plasma, oral, intravenous 1 or 3 mg/kg, peroral 30 mg/kg, n=3, read-out: bioavailability (BA)
Experimental: (§1) A test compound was administered to male rats intravenously (1 or 3 mg/kg) or perorally (30 mg/kg), and to male beagles intravenously or perorally (3 mg/kg). After administration, blood was collected at designated times, to thereby obtain plasma samples.

beagles = assay: Toxicity test: single oral administration to dogs; assay type: in vivo; conditions: male beagles, single peroral
Experimental: An encapsulated test drug was forcedly administered to beagles, and acute toxicity of the drug was studied.
Compound of Example 34a was singly perorally administered to male beagles at a dose of 30 and 100 mg/kg. […] General conditions of the beagles were observed, and hematologic and blood biochemical tests were carried out.

[2] = Bioavailability in male beagles; assay type: in vivo; conditions: beagle, dog, plasma, po; male beagles (dogs), intravenous or peroral 3 mg/kg, n=3; read-out: bioavailability (BA)
Experimental: as §1

[3] = Distribution in the brain (brain-to-plasma partition coefficient); assay type: in vivo; conditions: rat, male rats, intravenous bolus then constant-rate infusion, steady state
Experimental: Under anesthesia, a test drug was intravenously administered to male rats (1 to 4 mg/kg) and then intravenously administered (14 to 95 μg/kg) at a constant rate. At two hours after starting the infusion, when a steady state was thought to have been reached, the whole blood was collected from each rat and the brain was excised. The concentrations of test drug in brain samples and plasma samples were determined using LC-MS/MS, and the brain-to-plasma partition coefficient (Kp value) was calculated (n=6 or 9).

[4] = system: model rats with IL-1β-induced cachexia; assay: Improvement of cachexia induced by IL-1β; assay type: in vivo; conditions: SD rats, rmIL-1β into cerebral ventricle, peroral 100 mg/kg
From the text: By use of model rats with IL-1β-induced cachexia, the effects of a test compound on ameliorating reduction in body weight and in food intake were examined.
SD rats (male, 8-week old, 270 to 340 g, Japan Charles River) were conditioned in a cage (one rat/cage), and were allowed water and a diet (CRF-1, product of Oriental Yeast Co., Ltd.) ad libitum. The illumination conditions employed in the house were as follows: 10:30 to 22:30 (dark) and 22:30 to 10:30 (light).
An osmotic pump (Mini-Osmotic Pump Model 2001, product of ALZET, filled with saline) was connected to a canula, and the canula was inserted into the cerebral ventricle of a rat. The rats obtained were conditioned for three days, and the osmotic pump was changed to another osmotic pump filled with recombinant mouse IL-1β (rmIL-1β). By means of the pump, rmIL-1β was continuously injected into the cerebral ventricle ([…]), to thereby induce cachexia. Two days after starting of injection of IL-1β, a test compound dissolved in 0.5% methylcellulose solution was perorally administered to each rat just before switching-off the light. During the period of administration of the test compound, the body weight and the food intake were measured every 24 hours.

CYP3A4 = molecular target: T2, CYP3A4 (Homo sapiens, UniProt P08684); assay: CYP3A4 inhibitory activity, human liver microsomes, midazolam hydroxylation; assay type: in vitro ADME
T2 construct: determined by use of human liver microsomes based on the midazolam hydroxylation activity as an index; from tissue; host or cells: human liver microsomes
Experimental: The in vitro CYP3A4 inhibitory activity was determined by use of human liver microsomes based on the midazolam hydroxylation activity as an index, and the Ki values were calculated.

T1 sequence (Q92847 whole entry): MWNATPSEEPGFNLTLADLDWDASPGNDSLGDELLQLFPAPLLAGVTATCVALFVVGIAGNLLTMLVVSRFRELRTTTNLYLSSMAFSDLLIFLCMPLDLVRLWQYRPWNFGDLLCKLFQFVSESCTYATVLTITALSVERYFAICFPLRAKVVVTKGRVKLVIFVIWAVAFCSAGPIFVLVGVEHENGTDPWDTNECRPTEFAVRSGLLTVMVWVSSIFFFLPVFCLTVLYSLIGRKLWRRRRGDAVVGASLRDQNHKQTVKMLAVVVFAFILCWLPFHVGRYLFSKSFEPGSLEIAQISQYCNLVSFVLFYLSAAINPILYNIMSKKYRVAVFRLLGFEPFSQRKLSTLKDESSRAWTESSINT
T2 sequence (P08684 whole entry): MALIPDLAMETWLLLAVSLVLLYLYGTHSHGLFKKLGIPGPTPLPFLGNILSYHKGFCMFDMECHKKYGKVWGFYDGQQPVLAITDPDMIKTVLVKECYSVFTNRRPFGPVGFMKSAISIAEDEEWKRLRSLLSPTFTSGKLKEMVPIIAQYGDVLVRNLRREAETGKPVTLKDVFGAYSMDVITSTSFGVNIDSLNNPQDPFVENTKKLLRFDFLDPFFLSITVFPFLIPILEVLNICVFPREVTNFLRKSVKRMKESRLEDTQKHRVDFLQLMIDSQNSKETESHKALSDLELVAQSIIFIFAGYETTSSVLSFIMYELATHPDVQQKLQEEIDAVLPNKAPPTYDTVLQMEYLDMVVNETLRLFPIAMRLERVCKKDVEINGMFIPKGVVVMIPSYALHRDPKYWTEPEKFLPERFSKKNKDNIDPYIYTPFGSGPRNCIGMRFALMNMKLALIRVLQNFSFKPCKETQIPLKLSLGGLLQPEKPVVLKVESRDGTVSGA

For `CN(C)N(C)C(=O)[C@@]1(Cc2ccccc2)CCCN(C(=O)[C@@H](Cc2c[nH]c3ccccc23)NC(=O)C(C)(C)N)C1` [Anamorelin hydrochloride, anamorelin hydrochloride, reference compound], the EC50 (human GHS-R1a) was 0.15 nM, the bioavailability [1] was 21% and the “acute toxicity, general conditions” value (beagles; 30 mg/kg) was “serious anomalous disorders in general conditions such as vomiting, infrequent pulse, tremble, and disorders in walking”. For the same compound, the bioavailability [2] was 19% and the Kp at 2 h [3] was 0.42.
For `CC(C)C[C@@H](NC(=O)C(C)(C)N)C(=O)NC1Cc2cccc(N3CCCC3=O)c2N(Cc2ccsc2)C1=O` (stereo partly drawn) [Example 34a, (2R)-2-(2-amino-2-methylpropanamido)-4-methyl-N-[2-oxo-8-(2-oxopyrrolidin-1-yl)-1-(thiophen-3-ylmethyl)-1,2,3,4-tetrahydroquinolin-3-yl]pentanamide hydrochloride], the EC50 (human GHS-R1a) was 0.38 nM, the “reduction in body weight caused by IL-1β” value [4] was “significantly suppressed” and the “reduction in food intake caused by IL-1β” value [4] was “significantly suppressed”. For the same compound, the bioavailability [1] was 35%, the “acute toxicity, general conditions” value (beagles; maximum dose 100 mg/kg) was “only slight vomiting” and the Ki (CYP3A4) was 86 µM. The bioavailability [2] was 84% and the Kp at 2 h [3] was 0.06.
With `CCN(CC)c1cccc2c1N(Cc1ccccn1)C(=O)C(NC(=O)[C@@H](CC(C)C)NC(=O)CC(C)(C)N)C2` (stereo partly drawn) [Example 47, (2R)-2-(3-Amino-3-methylbutanamido)-N-[8-(diethylamino)-2-oxo-1-(pyridin-2-ylmethyl)-1,2,3,4-tetrahydroquinolin-3-yl]-4-methylpentanamide hydrochloride] the EC50 (human GHS-R1a) was 18.2 nM.
In the case of `CC(C)C[C@@H](NC(=O)C(C)(C)N)C(=O)NC1Cc2cccc(N3C(=O)CCC3O)c2N(Cc2ccsc2)C1=O` (stereo partly drawn) [Example 66, (2R)-2-(2-amino-2-methylpropanamido)-N-(8-(2-hydroxy-5-oxopyrrolidin-1-yl)-2-oxo-1-(thiophen-3-ylmethyl)-1,2,3,4-tetrahydroquinolin-3-yl)-4-methylpentanamide], the EC50 (human GHS-R1a) is reported as 0.45 nM.
